Experimental data: PubChem BioAssay AID1963433 (Molecular Pharmacology Branch, DTP, NCI, 2024)

Test system: 772245-204-R-J1-PDC complex spheroid growth
Test: Anticancer human tumor 772245-204-R-J1-PDC patient-derived rhabdomyosarcoma cell line growth inhibition [Asc]
Details: for IC50: curve of first compound; for viability, T/C: stronger effect = lower value
Protocol: Multicellular complex tumor spheroid response to apoptosis pathway targeting inhibitors Alrizomadlin, Pelcitoclax, and Dasminapant in combination with a variety of drugs and investigational agents in selected tumor cell lines
The MDM2 inhibitor alrizomadlin, the Bcl-2/Bcl-xL inhibitor pelcitoclax, and the IAPs inhibitor dasminapant were evaluated both individually and in combination with standard of care and investigational anticancer small molecules within a complex spheroid model of solid tumors. . Complex spheroids include a stromal component modeled by human endothelial cells (HUVEC) and fibroblasts modeled by human mesenchymal stem cells (MSCs). The concentration ranges selected for each drug and investigational agent were based upon clinically achievable concentrations if the clinical Cmax of the agent was known.
Compounds. The drugs and investigational agents: alrizomadlin (APG-115; NSC831270), pelcitoclax (APG-1252; NSC835773), dasminapant (APG-1387;NSC834197), TAK-243 (NSC785004), copanlisib (NSC809693), olaparib (NSC753686), talazoparib (NSC767125), cobimetinib (NSC 768068), eltanexor (KPT-8602, NSC 794443), abemaciclib (NSC 768073), sotorasib (NSC818433), adagrasib (NSC 831453), MRTX-1133 (NSC 836407), Iadademestat (ORY1001, NSC 806812), and RMC-4630 (NSC839698), were obtained from the NCI Developmental Therapeutics Program Chemical Repository. The FDA-approved anticancer drug set is available from the Developmental Therapeutics Program at https://dtp.cancer.gov/organization/dscb/obtaining/available plates.htm. […] The stock solutions were prepared in dimethyl sulfoxide (DMSO, Sigma-Aldrich, St. Louis, MO, cat. D2650) at 800-fold the tested concentration and stored at -70 degrees C prior to their use. All drugs and investigational agents were tested over a range starting from a high concentration at or near the clinical Cmax and decreasing in half-log increments. If the clinical Cmax for an agent had not been determined, the highest concentration tested was 10 microM.
The patient-derived cancer (PDC) cell lines include five colon adenocarcinomas: 186277-243-T-J2-PDC, 616215-338-R-J1-PDC, 439559-082-T-J2-PDC, 463943-066-T-J2-PDC, and 519858-162-T-J1-PDC; three pancreatic carcinomas: 323965-272-R-J2-PDC, 521955-158-R6-J3-PDC, and 521955-158-R2-J5-PDC; two uterine sarcomas: 327498-152-R-J2-PDC and 993429-296-R-J1-PDC; two rhabdomyosarcomas: 755483-174-R-J1-PDC and 772245-204-R-J1-PDC; two soft tissue sarcomas: 126254-015-R-J1-PDC and 494315-158-R-J1-PDC; two malignant fibrous histiocytomas: 317291-083-R-J1-PDC and 596521-263-R-J1-PDC; two breast carcinomas: 171881-019-R-J1-PDC and 885512-296-R-J2-PDC; and one ovarian carcinoma: 6556581-035-R-J-PDC were obtained from the NCI PDMR, (https://pdmr.cancer.gov). The established cell lines HSSY-2 synovial sarcoma (RRID:CVCL 8719), SYO-1 synovial sarcoma (RRID:CVCL_7146), MPNST malignant peripheral neural sheath tumor were obtained from the Sloan Kettering Institute. The following established cell lines were purchased from the American Type Culture Collection (ATCC, Manassas, VA), Sor the received from the NCI repository:, PANC-1 pancreatic carcinoma (CRL-1469, RRID:CVCL_0480), OVCAR-5 ovarian carcinoma (RRID:CVCL_1628), OVCAR-8 ovarian carcinoma (RRID:CVCL_1629), , MCF-7 breast carcinoma (CRL-12584, RRID:CVCL_0031), MDA-MB-231 breast carcinoma (CRL-12532, RRID:CVCL_0062), NCI-H1876 small cell lung carcinoma (CRL-5902, RRID:CVCL_1503), NCI-H510A small cell lung carcinoma (HTB-184, RRID:CVCL_1565), NCI-H1417 (CRL-5869, RRID:CVCL_1469), and NCI-H196 small cell lung carcinoma (CRL-5823, RRID:CVCL_1509). Dr. Peter Houghton (Greehey Children's Cancer Research Institute, University of Texas Health Science Center, San Antonio, TX) provided Rh-18 rhabdomyosarcoma (RRID:CVCL_1659). Pooled donor human umbilical vein endothelial cells (HUVEC, Lonza, cat. CC-2519) and human mesenchymal stem cells (hMSC, Lonza, cat. PT-2501) were purchased from Lonza (Walkersville, MD).
Cell Culture. […]

[1] = second compound 0.03 µM, first compound 0.00316 µM
[2] = second compound 0.03 µM, first compound 0.01 µM
[3] = second compound 0.03 µM, first compound 0.0316 µM
[4] = second compound 0.03 µM, first compound 0.1 µM
[5] = second compound 0.03 µM, first compound 0.316 µM
[6] = second compound 0.03 µM, first compound 1 µM
[7] = second compound 0.0949 µM, first compound 0.00316 µM
[8] = second compound 0.0949 µM, first compound 0.01 µM
[9] = second compound 0.0949 µM, first compound 0.0316 µM
[10] = second compound 0.0949 µM, first compound 0.1 µM
[11] = second compound 0.0949 µM, first compound 0.316 µM
[12] = second compound 0.0949 µM, first compound 1 µM
[13] = second compound 0.3 µM, first compound 0.00316 µM
[14] = second compound 0.3 µM, first compound 0.01 µM
[15] = second compound 0.3 µM, first compound 0.0316 µM
[16] = second compound 0.3 µM, first compound 0.1 µM
[17] = second compound 0.3 µM, first compound 0.316 µM
[18] = second compound 0.3 µM, first compound 1 µM
[19] = second compound 0.949 µM, first compound 0.00316 µM
[20] = second compound 0.949 µM, first compound 0.01 µM
[21] = second compound 0.949 µM, first compound 0.0316 µM
[22] = second compound 0.949 µM, first compound 0.1 µM
[23] = second compound 0.949 µM, first compound 0.316 µM
[24] = second compound 0.949 µM, first compound 1 µM
[25] = second compound 3 µM, first compound 0.00316 µM
[26] = second compound 3 µM, first compound 0.01 µM
[27] = second compound 3 µM, first compound 0.0316 µM
[28] = second compound 3 µM, first compound 0.1 µM
[29] = second compound 3 µM, first compound 0.316 µM
[30] = second compound 3 µM, first compound 1 µM
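Note: compound exposure lasted seven days.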
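Throughout, for viability, T/C: 100% = DMSO vehicle control viability.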

Compound	IC50 (second compound 0.03 µM)	IC50 (second compound 0.0949 µM)	IC50 (second compound 0.3 µM)	IC50 (second compound 0.949 µM)	IC50 (second compound 3 µM)	viability, T/C [1]	viability, T/C [2]	viability, T/C [3]	viability, T/C [4]	viability, T/C [5]	viability, T/C [6]	viability, T/C [7]	viability, T/C [8]	viability, T/C [9]	viability, T/C [10]	viability, T/C [11]	viability, T/C [12]	viability, T/C [13]	viability, T/C [14]	viability, T/C [15]	also measured
CCN1CCN(Cc2ccc(Nc3ncc(F)c(-c4cc(F)c5nc(C)n(C(C)C)c5c4)n3)nc2)CC1 + CCN1C(C(=O)NC23CCC(C(=O)O)(CC2)CC3)C(c2cccc(Cl)c2F)C2(C(=O)Nc3cc(Cl)ccc32)C12CCCCC2	> 1 µM	> 1 µM	> 1 µM	> 1 µM	> 1 µM	100%	97.4%	103%	110%	114%	116%	99.5%	110%	101%	111%	114%	116%	106%	111%	122%	viability, T/C [16]: 103%; viability, T/C [17]: 102%; viability, T/C [18]: 131%; viability, T/C [19]: 94.3%; viability, T/C [20]: 93.4%; viability, T/C [21]: 100%; viability, T/C [22]: 102%; viability, T/C [23]: 92.9%; viability, T/C [24]: 96%; viability, T/C [25]: 77.9%; viability, T/C [26]: 84.7%; viability, T/C [27]: 85.5%; viability, T/C [28]: 89.9%; viability, T/C [29]: 80.1%; viability, T/C [30]: 121%
O=C(c1ccc(F)c(F)c1Nc1ccc(I)cc1F)N1CC(O)([C@@H]2CCCCN2)C1 + CCN1C(C(=O)NC23CCC(C(=O)O)(CC2)CC3)C(c2cccc(Cl)c2F)C2(C(=O)Nc3cc(Cl)ccc32)C12CCCCC2	> 1 µM	> 1 µM	> 1 µM	> 1 µM	> 1 µM	115%	109%	108%	112%	100%	50.8%	113%	91.5%	108%	105%	115%	70.6%	102%	121%	98.6%	viability, T/C [16]: 106%; viability, T/C [17]: 106%; viability, T/C [18]: 73.9%; viability, T/C [19]: 110%; viability, T/C [20]: 109%; viability, T/C [21]: 115%; viability, T/C [22]: 98.5%; viability, T/C [23]: 105%; viability, T/C [24]: 62.3%; viability, T/C [25]: 90.9%; viability, T/C [26]: 87.1%; viability, T/C [27]: 85.1%; viability, T/C [28]: 100%; viability, T/C [29]: 88.5%; viability, T/C [30]: 53.3%
